Inconclusive results are not listed. Active and inactive are the calls of the source.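 How the source made its calls: active means Wild-type ribosome reporter drop at least double the humanized mutant ribosome reporter drop, growth loss under a set limit; inconclusive means no clear call, values can overlap the other calls; inactive means the rest.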

Among the data in PubChem BioAssay AID977621 (Broad Institute, 2014) are AC50 values, retold here.

The test deals with E. coli wild-type GFP strain growth, fluorescence, 24 h. Put plainly: wild-type E. coli growth inhibition versus H69 humanized strain – H69 mutant RFP, wild-type GFP, cherry-pick, dose response (AID 977621).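 Further: wild-type GFP and H69 mutant RFP strains grown together 50/50 in each well.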
[1] abbreviates: E. coli mixed culture, 24 h, measured here: total growth OD600, test 2.

A word on the AC50: it is the concentration at which the activity in the assay is half-maximal. `CC1CCCC(NC(=O)COC(=O)Cc2c[nH]c3ccccc23)C1C` (configuration not stated): the AC50 under setting [1] is > 100 µM. On to `CCn1ncc(Br)c1C(=O)Nc1ccc2c(c1)OCCO2`, for which the AC50 was > 100 µM (inactive).

Turning to `C=CCN(CC=C)C(=O)c1ccc2nc(Cc3ccc(OC)c(OC)c3)oc2c1`, the AC50 is > 100 µM (inactive). Moreover, the AC50 under setting [1] is > 100 µM.

`CC(=O)c1c(C)[nH]c(C(=O)Nc2nc(C)cs2)c1C`: under setting [1], the AC50 was > 100 µM.

`COc1ccc(-c2csc(C)n2)cc1Br`: the AC50 under setting [1] was > 100 µM. On to `CCC(=O)c1ccc(OCC(=O)Nc2nc(C)cs2)cc1`, for which the AC50 is > 100 µM (inactive). In addition, the concentration at half-maximal activity (AC50) under setting [1] is > 100 µM. For the compound `CC(C)Cc1nnc(NS(=O)(=O)c2ccccc2)s1`, the AC50 was > 100 µM (inactive). On to `Cc1noc(C)c1NC(=O)Nc1ccc2c(c1)C(=O)N([C@H](C)CO)C[C@H](C)[C@H](CN(C)C(=O)Nc1ccc3c(c1)OCO3)OCCCC[C@H](C)O2`, for which, under setting [1], the AC50 was > 100 µM.

Regarding `O=C(O)c1ccc(-c2noc(-c3cccc(Cl)c3)n2)cc1`, the AC50 is > 100 µM (inactive). As for `CC(OC(=O)CCc1c[nH]c2ccccc12)C(=O)c1ccccc1` (configuration not stated), the AC50 was > 100 µM (inactive). Moreover, the AC50 under setting [1] amounted to 46.5 µM. With `N#Cc1cccc(-c2ccc3c(c2)[C@H]2[C@H](CCN2C(=O)c2ccccc2F)[C@H](CO)N3)c1`, the AC50 was > 100 µM (inactive). In the case of `Cc1cccc(OCCC(=O)N(C)CC(=O)Nc2cccc3ccccc23)c1`, the AC50 was > 100 µM (inactive). Same read-out and setting: to `Nc1ccc2nc(-c3ccc(Cl)cc3)[nH]c2c1` belongs > 100 µM (inactive); to `COc1ccc(-c2nnn(CC(=O)N3CCN(c4ccccc4OC)CC3)n2)cc1OC`, > 100 µM (inactive); to `O=C(CCc1ccccc1)Nc1sc2c(c1C(=O)O)CCCC2`, > 100 µM (inactive). As for `CC(C)(C)N(Cc1ccccc1)C(=O)CN1C(=O)c2ccccc2S1(=O)=O`, the AC50 is > 100 µM (inactive). As to `CCCc1nc2cc(C)c(Br)c(C)n2c1CC1CCCCC1`, the AC50 was > 100 µM (inactive). The compound also returned a half-maximal activity concentration (AC50) under setting [1] of 48.9 µM. Take `CCOC(=O)C1CCCN(C(=O)c2csc(-c3ccc4c(c3)CCO4)n2)C1` (configuration not stated): the AC50 was > 100 µM (inactive). Under setting [1], `CCc1nnc(NS(=O)(=O)c2ccc(NC(=O)c3cc(Cl)ccc3[N+](=O)[O-])cc2)s1` registered a concentration at half-maximal activity (AC50) of 51.9 µM. On the same count and under the same terms, to `CCN(CC)C(=O)c1ccc(COc2ccccc2Cl)o1` belongs > 100 µM. As to `COc1cc(CO)cc(Br)c1OCC(=O)Nc1cccc2ccccc12`, the AC50 was > 100 µM (inactive). For `CSc1ccccc1C(=O)NCCc1ccc(S(=O)(=O)N2CCCCC2)cc1`, the AC50 is > 100 µM (inactive). Same read-out and setting: the result for `CS(=O)(=O)c1cccc(C(=O)Nc2cccc(-c3nc4ccccc4[nH]3)c2)c1` reads > 100 µM (inactive).

For `Cc1cc(C(=O)COC(=O)c2ccc(Br)o2)c(C)n1C`, the AC50 was > 100 µM (inactive). This compound also returned a concentration at half-maximal activity (AC50) under setting [1] of 48.4 µM.

Take `Cc1ccc(OCCn2c(=S)[nH]c3c(N)ncnc32)cc1`: the AC50 is > 100 µM (inactive). Under setting [1], this compound had an AC50 of 31.8 µM. Turning to `COc1ccc(CNC(=O)CSCc2c(F)cccc2Cl)cc1`, under setting [1], the AC50 is > 100 µM. Consider `COc1cccc(-c2ccc([C@@H]3[C@H](CO)N4CCCCN(S(=O)(=O)c5cccs5)C[C@@H]34)cc2)c1`, for which the AC50 was > 100 µM (inactive). The same compound gave a half-maximal activity concentration (AC50) under setting [1] of 33.5 µM.

Regarding `Cc1ccc(Nc2cc(C(=O)NCCCN3CCOCC3)c3ccccc3n2)cc1C`, the AC50 is > 100 µM (inactive). Regarding `COc1cc(C(N)=O)cc(Br)c1OCc1ccccc1`, the AC50 is > 100 µM (inactive). Under setting [1], this compound returned a half-maximal activity concentration (AC50) of 35.4 µM. Regarding `CC(NCc1ccc(S(N)(=O)=O)cc1)C(=O)Nc1cc([N+](=O)[O-])ccc1Cl` (configuration not stated), the AC50 is > 100 µM (inactive). Consider `COc1ccccc1N(C1=NCCCS1)S(=O)(=O)c1ccc(C(C)(C)C)cc1`, for which the AC50 was > 100 µM (inactive). For the compound `N#Cc1ccc(OCC(=O)N2CCN(S(=O)(=O)c3ccc(Cl)s3)CC2)cc1`, the AC50 is > 100 µM (inactive). On the same count and under the same terms, to `Cc1cc(C(=O)Nc2cccc3c2O[C@H](CN(C)S(=O)(=O)c2ccc(Cl)cc2)[C@H](C)CN([C@H](C)CO)C3=O)n(C)n1` belongs > 100 µM (inactive). Regarding `O=C(CC(c1ccccc1)c1cc(Br)ccc1O)N1CCCC1` (configuration not stated), the AC50 is > 100 µM (inactive). The compound further displayed an AC50 under setting [1] of 36.4 µM. On to `CS(=O)(=O)NCCSc1cc(C(F)(F)F)nc2ccccc12`, for which the AC50 is > 100 µM (inactive). Under setting [1], this compound had an AC50 of 30.4 µM. With `C[C@@H]1CCCCO[C@H](CN(C)C)[C@H](C)CN([C@H](C)CO)C(=O)c2cc(NC(=O)Nc3cccc4ccccc34)ccc2O1`, under setting [1], the half-maximal activity concentration (AC50) is > 100 µM.

Take `COC(=O)c1cc2ccccc2n1S(=O)(=O)c1ccccc1`: under setting [1], the half-maximal activity concentration (AC50) was > 100 µM.

Consider `COc1ccc(CCNc2nc(-c3ccncc3)cs2)cc1OC`, for which the AC50 is > 100 µM (inactive). For `O=c1[nH]nc(SCc2ccccc2)n1C1CC2C=CC1C2` (configuration not stated), the concentration at half-maximal activity (AC50) under setting [1] worked out at 40.6 µM.

Regarding `O=C(NCCc1ccccn1)c1cccc(S(=O)(=O)N2CCc3ccccc32)c1`, the AC50 was > 100 µM (inactive). As to `Cc1ccc(OCC(O)CN2CCN(c3ccccn3)CC2)c(C)c1` (configuration not stated), the AC50 is > 100 µM (inactive). Further, the AC50 under setting [1] turned out to be 45.6 µM. Regarding `Clc1ccccc1C1CC(c2ccccc2)=Nc2ccccc2N1` (configuration not stated), the AC50 was > 100 µM (inactive).

On to `CC(=O)Nc1cccc(NC(=O)CSc2ccc(-c3cccnc3)nn2)c1`, for which the AC50 is > 100 µM (inactive). Under setting [1], the AC50 worked out at 48.7 µM. In the case of `CCCCSc1nc(N)c(C#N)c(-c2cccs2)c1C#N`, the AC50 is > 100 µM (inactive). Consider `C[C@@H]1CN([C@H](C)CO)C(=O)c2cccc(NC(=O)Nc3ccc4c(c3)OCO4)c2O[C@@H]1CN(C)C(=O)Nc1ccc2c(c1)OCO2`, for which the AC50 under setting [1] was > 100 µM. As to `COc1ccccc1NC(=O)Cn1cc(C(=O)c2ccco2)c2ccccc21`, the AC50 is > 100 µM (inactive). The compound further registered an AC50 under setting [1] of 31.3 µM. In the case of `COc1ccc(N2C(=O)C3C(C2=O)C3(c2ccccc2)c2ccccc2)cc1` (configuration not stated), the AC50 was > 100 µM (inactive). As for `Cc1onc(-c2ccccc2Cl)c1C(=O)N[C@@H](C)c1ccccc1`, the AC50 is > 100 µM (inactive). In addition, the AC50 under setting [1] is > 100 µM.

Consider `COc1ccc(C)c2sc(N(CCN(C)C)C(=O)c3ccc(S(=O)(=O)N(C)c4ccccc4)cc3)nc12`, for which the AC50 is > 100 µM (inactive).

With `Cc1ccc(NC(=O)C[n+]2cc(-c3ccccc3)n3c2CCC3)cc1`, the concentration at half-maximal activity (AC50) under setting [1] is > 100 µM. Turning to `COc1ccc(NC(=O)Nc2cccc3c2O[C@H](CN(C)S(=O)(=O)c2ccc(Cl)cc2)[C@H](C)CN([C@@H](C)CO)C3=O)cc1`, the AC50 is > 100 µM (inactive). Under setting [1], this compound yielded a half-maximal activity concentration (AC50) of 6.44 µM. Consider `CC1Cc2ccccc2N1C(=O)CN1C(=O)NC(C)(CCc2ccccc2)C1=O` (configuration not stated), for which the concentration at half-maximal activity (AC50) under setting [1] is > 100 µM. Turning to `CCC(C(=O)NC1CCCC1)n1c(-c2ccnc3ccccc23)nc2ccccc21` (configuration not stated), the AC50 under setting [1] was > 100 µM. For the compound `O=C(c1ccccc1)c1ccc2nc(-c3ccc(NC(=O)c4ccccc4Br)cc3)[nH]c2c1`, the AC50 was > 100 µM (inactive). Besides, under setting [1], the AC50 was > 100 µM.

`COc1ccc(CNS(=O)(=O)c2ccc3c(c2)NC(=O)C(C)S3)cc1` (configuration not stated): the AC50 is > 100 µM (inactive). Compound `COc1cc(OC)cc(C(=O)Nc2ccc(S(=O)(=O)Nc3cnc4ccccc4n3)cc2)c1` showed an AC50 under setting [1] of 33 µM.
